From US9828350B2, “5,6-dihydro-2H-[1,4]oxazin-3-yl-amine derivatives useful as inhibitors of beta-secretase (BACE)” (Janssen Pharmaceutica NV, priority 2010, dated 2017)

Tests used:
Abeta 1-42 = experiment: Cellular αLisa assay in SKNBE2 cells, Abeta 1-42; type: cell-based, human; conditions: incubated for 18 hours; for IC50: Homo sapiens, SKNBE2, 18 h, read-out: Cellular αLisa assay in SKNBE2 cells Abeta 42 pIC50 (converted)
Description: (§1) Cellular αLisa Assay in SKNBE2 Cells
(§2) In two αLisa assays the levels of Abeta total and Abeta 1-42 produced and secreted into the medium of human neuroblastoma SKNBE2 cells are quantified. The assay is based on the human neuroblastoma SKNBE2 expressing the wild type Amyloid Precursor Protein (hAPP695). The compounds are diluted and added to these cells, incubated for 18 hours and then measurements of Abeta 1-42 and Abeta total are taken. Abeta total and Abeta 1-42 are measured by sandwich αLisa. αLisa is a sandwich assay using biotinylated antibody AbN/25 attached to streptavidin coated beads and antibody Ab4G8 or cAb42/26 conjugated acceptor beads for the detection of Abeta total and Abeta 1-42 respectively. In the presence of Abeta total or Abeta 1-42, the beads come into close proximity. The excitation of the donor beads provokes the release of singlet oxygen molecules that trigger a cascade of energy transfer in the acceptor beads, resulting in light emission. Light emission is measured after 1 hour incubation (excitation at […] and emission at 615 nm).

[1] = molecular target: recombinant BACE1 protein (Homo sapiens, UniProt P56817); experiment: Biochemical FRET based assay; conditions: recombinant BACE1 1 μg/ml, 120 minutes at room temperature, pH 5.0; for IC50: read-out: Biochemical FRET based assay pIC50 (converted)
From the text: Biochemical FRET Based Assay
This assay is a Fluorescence Resonance Energy Transfer Assay (FRET) based assay. The substrate for this assay is an APP derived 13 amino acids peptide that contains the ‘Swedish’ Lys-Met/Asn-Leu mutation of the amyloid precursor protein (APP) beta-secretase cleavage site. This substrate also contains two fluorophores: (7-methoxycoumarin-4-yl) acetic acid (Mca) is a fluorescent donor with excitation wavelength at 320 nm and emission at 405 nm and 2,4-Dinitrophenyl (Dnp) is a proprietary quencher acceptor. […] Upon cleavage by BACE1, the fluorophore Mca is separated from the quenching group Dnp, restoring the full fluorescence yield of the donor. The increase in fluorescence is linearly related to the rate of proteolysis.
Briefly in a 384-well format recombinant BACE1 protein in a final concentration of 1 μg/ml is incubated for 120 minutes at room temperature with […] substrate in incubation buffer (40 mM Citrate buffer pH 5.0, 0.04% PEG, 4% DMSO) in the absence or presence of compound. Next the amount of proteolysis is directly measured by fluorescence measurement at T=0 and T=120 (excitation at 320 nm and emission at 405 nm). Results are expressed in RFU (Relative Fluorescence Units), as difference between T120 and TO.

Abeta total = experiment: Cellular αLisa assay in SKNBE2 cells, Abeta total; type: cell-based, human; conditions: incubated for 18 hours; for IC50: Homo sapiens, SKNBE2, 18 h, read-out: Cellular αLisa assay in SKNBE2 cells Abetatotal pIC50 (converted)
Description: as §1, §2

recombinant BACE1 protein, sequence (P56817 46-501): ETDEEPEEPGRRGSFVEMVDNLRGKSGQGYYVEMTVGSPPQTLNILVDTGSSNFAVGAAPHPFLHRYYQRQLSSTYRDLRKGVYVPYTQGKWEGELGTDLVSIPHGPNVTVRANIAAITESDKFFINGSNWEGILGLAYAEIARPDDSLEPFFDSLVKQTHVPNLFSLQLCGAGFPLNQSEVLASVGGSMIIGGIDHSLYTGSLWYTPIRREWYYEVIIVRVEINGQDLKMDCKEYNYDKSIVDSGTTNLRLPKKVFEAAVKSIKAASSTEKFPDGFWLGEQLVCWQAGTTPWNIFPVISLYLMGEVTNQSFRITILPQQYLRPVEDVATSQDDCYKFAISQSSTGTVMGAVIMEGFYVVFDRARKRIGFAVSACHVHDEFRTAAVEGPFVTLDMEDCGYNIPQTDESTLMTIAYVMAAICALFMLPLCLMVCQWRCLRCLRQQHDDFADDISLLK

Structure (SMILES)	Cellular αLisa assay in SKNBE2 cells Abeta 42 pIC50 (Abeta 1-42)	Biochemical FRET based assay pIC50 [1]	Cellular αLisa assay in SKNBE2 cells Abetatotal pIC50 (Abeta total)	IC50 [1] [nM]	IC50 (Abeta 1-42) [nM]	IC50 (Abeta total) [nM]
CC1(c2cc(-c3ccc(Cl)cc3)c(F)cc2F)COCC(N)=N1 (stereo not drawn) [Compound 34]	5.54	5.05	5.58	–	–	–
CC1(c2cc(-c3cncnc3)ccc2F)N=C(N)COC1C(F)(F)F (single isomer, unassigned) [Compound 238]	6.65	–	6.66	832	–	–
CC1(c2cc(NC(=O)c3cnc(C(F)(F)F)cn3)ccc2F)COCC(N)=N1 (stereo not drawn) [Compound 22]	7.59	6.7	7.663	–	–	–
C[C@]1(c2cc(NC(=O)c3ncc(C#N)cc3Cl)ccc2F)N=C(N)CO[C@@]1(F)C(F)(F)F [Compound 307]	–	–	–	200	107	93.3
N#Cc1cncc(-c2ccc(F)c([C@@]3(C4CC4)N=C(N)CO[C@H]3F)c2)c1 [Compound 223]	–	–	–	24500	> 10000	> 10000
Cc1cnc(C(=O)Nc2ccc(F)c([C@]3(C)COCC(N)=N3)c2)cn1 [Compound 40]	7.31	6.04	7.32	–	–	–
C[C@@]1(c2cc(NC(=O)c3ccc(Cl)cc3)ccc2F)COCC(N)=N1 [Compound 41]	7.31	6.33	7.33	–	–	–
COc1cncc(-c2cccc(C3(C)COC4(CC4)C(N)=N3)c2)c1 (racemic) [Compound 16, rac-6-[3-(5-methoxypyridin-3-yl)phenyl]-6-methyl-4-oxa-7-azaspiro[2.5]oct-7-en-8-amine]	–	–	–	2190	389	355
CC1(c2cccc(NC(=O)c3ncc(Cl)cc3F)c2)N=C(N)COC1F (single isomer, unassigned) [Compound 163]	8.01	–	8.05	40.7	–	–
CC1(c2cccc(NC(=O)c3ccc(Cl)cn3)c2)N=C(N)COC1F (single isomer, unassigned) [Compound 90]	7.76	6.37	7.76	–	–	–
NC1=N[C@@](c2cc(NC(=O)c3ncc(Cl)cc3Cl)ccc2F)(C2CC2)[C@@H](F)OC1 [Compound 259]	–	–	–	85.1	135	126
NC1=N[C@@](c2cc(NC(=O)c3ncc(Cl)cc3Cl)ccc2F)(C2CC2)[C@H](C(F)(F)F)OC1 [Compound 234]	–	–	–	25.1	11.5	10.2
Cc1ccc(C(=O)Nc2cccc(C3(C)N=C(N)COC3(F)C(F)(F)F)c2)nc1 (single isomer, unassigned) [Compound 191]	5.04	–	5.46	18600	–	–
Cc1cc(Br)cnc1C(=O)Nc1cccc([C@@]2(C3CC3)N=C(N)CO[C@H]2F)c1 [Compound 272]	–	–	–	91.2	36.3	35.5
N#Cc1cnc(C(=O)Nc2cccc([C@@]3(C4CC4)N=C(N)CO[C@H]3F)c2)c(Cl)c1 [Compound 309]	–	–	–	219	74.1	72.4
CC1(c2cccc(NC(=O)c3ccc(C#N)cc3)c2)COCC(N)=N1.Cl (racemic) [Compound 42]	5.85	5.74	5.9	–	–	–
NC1=NC(c2cccc(NC(=O)c3ccc(Cl)cn3)c2)(C2CC2)COC1 (single isomer, unassigned) [Compound 195]	8.01	–	8.02	53.7	–	–
COc1cnc(C(=O)Nc2cccc(C3(C)N=C(N)COC3(F)C(F)(F)F)c2)cn1 (single isomer, unassigned) [Compound 179]	<5	–	<5	> 30200	–	–
CCC1(c2cc(NC(=O)c3cnc(OC)cn3)ccc2F)N=C(N)COC1F (stereo not drawn) [Compound 281]	7.3	–	7.34	74.1	–	–
CC1(c2cccc(-c3cncnc3)c2)N=C(N)COC1(F)C(F)(F)F (single isomer, unassigned) [Compound 140]	<5	–	<5	> 30200	–	–
N#Cc1ccc(C(=O)Nc2ccc(F)c([C@@]3(C4CC4)N=C(N)CO[C@@]3(F)C(F)(F)F)c2)nc1 [Compound 262]	–	–	–	30.2	69.2	74.1
CC1(c2cc(NC(=O)c3cnc(C(F)(F)F)cn3)ccc2F)COCC(N)=N1 (stereo not drawn) [Compound 147]	7.59	6.7	7.6	–	–	–
CC1(c2cc(-c3cncnc3)ccc2F)COCC(N)=N1 (single isomer, unassigned) [Compound 54]	6.68	5.41	6.65	–	–	–
CC1(c2cc(-c3cccc(OC(F)(F)F)c3)c(F)cc2F)COCC(N)=N1.Cl (stereo not drawn) [Compound 36]	5.98	5.13	6.09	–	–	–
C[C@]1(c2cccc(NC(=O)c3ccc(C#N)cn3)c2)N=C(N)CO[C@@]1(F)C(F)(F)F [Compound 241]	–	–	–	324	126	120
CC1(c2cccc(NC(=O)c3ncc(Cl)cc3F)c2)N=C(N)COC1(F)C(F)(F)F (single isomer, unassigned) [Compound 173]	8.11	–	8.07	21.9	–	–
CC1(c2cccc(-c3cncc(C#N)c3)c2)N=C(N)COC1C(F)(F)F (single isomer, unassigned) [Compound 205]	5.55	–	5.47	15800	–	–
CC1(c2cc(-c3cncc(C#N)c3)ccc2F)N=C(N)COC1C(F)(F)F (single isomer, unassigned) [Compound 266]	<5	–	~5	> 30200	–	–
COc1cnc(C(=O)Nc2cccc(C3(C)N=C(N)COC3(F)C(F)(F)F)c2)cn1 (single isomer, unassigned) [Compound 176]	6.34	–	6.38	1290	–	–
CC1(c2cccc(-c3cncnc3)c2)N=C(N)COC1(F)C(F)(F)F (single isomer, unassigned) [Compound 116]	5.18	–	5.06	> 30200	–	–
